What was measured:
Format in all cases: functional
Details in all cases: 720 h
Mus musculus [1] = assay: The percentage 30-day survival of the mice at 75 mg/kg dose, with the radiation dose of 10 Gy.
Mus musculus [2] = assay: The percentage 30-day survival of the mice at 600 mg/kg dose, with the radiation dose of 10 GY.
Mus musculus [3] = assay: The percentage 30-day survival of the mice at 150 mg/kg dose, with the radiation dose of 10 Gy.
Mus musculus [4] = assay: The percentage 30-day survival of the mice at 300 mg/kg dose, with the radiation dose of 10 GY.

## NCCCNCCSP(=O)(O)O [AMIFOSTINE]
Mus musculus [1]
  survival at 75 mg/kg: 40%
Mus musculus [2]
  survival at 600 mg/kg: 100%
Mus musculus [3]
  survival at 150 mg/kg: 40%
Mus musculus [4]
  survival at 300 mg/kg: 100%

Reference: ChEMBL document CHEMBL1124909 (J Med Chem, 1990)
